Literature values in publication PMC4128785 (Molecular Pharmaceutics, 2014).

Conditions: Sc(III) complex of DOTA

O=C(O)CN1CCN(CC(=O)O)CCN(CC(=O)O)CCN(CC(=O)O)CC1 [DOTA, 1,4,7,10-tetraazacyclododecane-N,N′,N″,N‴-tetraacetic acid]
thermodynamic stability (−log K): 27.0
